Assay results from US5459152A, “Platelet activating factor antagonists” (Abbott Laboratories, priority 1993, dated 1995).
Counter-ions that a name gives are not always drawn.

Molecular target: T1, PAF receptor (Oryctolagus cuniculus, UniProt G1TEI7)
T1 construct: platelet membranes where prepared by centrifugation and washing; tissue Pel-Freez (Rogers, AR) (whole rabbit blood); host or cells: rabbit platelet membranes
Test: PAF receptor binding assay ([3H]C18-PAF, rabbit platelet membranes)
Conditions: inhibition of specific binding of 0.6 nM [3H]C18-PAF to rabbit platelet membranes, 60 min, room temperature; Ki calculated from IC50 by Cheng and Prusoff; read-out: PAF Receptor Binding Activity K1
Procedure: The ability of representative compounds of the present invention to inhibit PAF activity was determined in an in vitro test using the following method.
Citrated whole rabbit blood was obtained from Pel-Freez (Rogers, AR). Rabbit platelets where prepared by centrifugation and washing. The platelets where lysed by freeze-thawing and sonication; platelet membranes where prepared by centrifugation and washing. Final membrane preparations where stored frozen in 10 mM Tris/5 mM MgCl2 /2 mM EDTA (TME buffer, pH 7.0) with 0.25 M sucrose added for membrane stabilization.
The final volume of the assay was 100 μl. The assay was conducted in Millititre-GV™ (Millipore Corp.) filtration plates; incubation time was for 60 minutes at room temperature (22°-23° C.). "Specific binding" was operationally defined as the arithmetic difference between "total binding" of 0.6 nM [^3 H]C18 -PAF (in the absence of added PAF) and "nonspecific binding" (in the presence of 1 μM PAF). After the prescribed incubation, platelet membranes where filtered under vacuum and washed with 1 millilitre of "binding buffer". The filters was dried and removed. The bound radioactivity was quantitated with a Berthold TLC-Linear Analyzer model LB2842.
Experiments where repeated at least once.

T1 sequence (G1TEI7 1-342): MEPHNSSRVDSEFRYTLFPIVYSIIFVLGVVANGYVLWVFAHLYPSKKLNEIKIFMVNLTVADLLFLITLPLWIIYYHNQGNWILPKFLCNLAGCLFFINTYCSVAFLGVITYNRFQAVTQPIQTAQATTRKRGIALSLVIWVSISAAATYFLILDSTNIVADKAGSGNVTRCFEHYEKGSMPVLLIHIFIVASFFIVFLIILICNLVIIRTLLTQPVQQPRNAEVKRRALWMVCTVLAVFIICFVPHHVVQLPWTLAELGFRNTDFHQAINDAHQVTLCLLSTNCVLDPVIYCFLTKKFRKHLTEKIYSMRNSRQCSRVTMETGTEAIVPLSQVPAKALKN

Row | Compound | Ki
1 | 3(1-Carbamoylamino-pyridin-3-yl)-7-[1-N,N-dimethylcarbamoyl-6-(4-fluorophenyl)indol-3-ylcarbonyl]-1H,3H-pyrrolo[1,2-c]thiazole [Example 77] | 100 nM

Same assay, conditions: read-out: PAF Receptor Binding Activity K1

Row | Ki | Compound
2 | 8 nM | CN(C)C(=O)n1cc(C(=NNC(N)=O)c2ccn3c2CSC3c2cccnc2)c2ccc(-c3ccc(F)cc3)cc21 (stereo not shown) [Example 106, 3-(pyridin-3-yl)-7-[1-N,N-dimethylcarbamoyl-6-(4-fluorophenyl)indol-3-ylcarbonylsemicarbazide]-1H,3H-pyrrolo[1,2-c]thiazole]
3 | 16 nM | CN(C)C(=O)n1cc(C(=O)c2ccn3c2CSC3c2cccnc2)c2ccc(-c3ccccc3)cc21 (stereo not shown) [Example 52, 3-(Pyridin-3-yl)-7-(1-N,N-dimethylcarbamoyl-6-phenylindol-3-ylcarbonyl)-1H,3H-pyrrolo[1,2-c]thiazole Hydrochloride]
4 | 0.95 nM | CN(C)C(=O)n1cc(C(=O)c2ccn3c2CSC3c2cccnc2)c2ccc(-c3cccs3)cc21 (stereo not shown) [Example 101, 3-(Pyridin-3-yl)-7-(1-N,N-dimethylcarbamoyl-6-thiophen-2-ylindol-3-ylcarbonyl)-1H,3H-pyrrolo[1,2-c]thiazole]
5 | 6.9 nM | CN(C)CCN(C)C(=O)n1cc(C(=O)c2ccn3c2CSC3c2cccnc2)c2ccc(-c3ccc(F)cc3)cc21 (stereo not shown) [Example 84, 3-(Pyridin-3-yl)-7-[1-(N-methyl-N-(dimethylaminoethyl))carbamoyl-6-(4-fluorophenyl)indol-3-ylcarbonyl]-1H,3H-pyrrolo[1,2-c]thiazole]

Continued, compound first:

Row | Compound | Ki
6 | CN(C)C(=O)n1cc(C(=O)c2ccn3c2CSC3c2ccc[n+]([O-])c2)c2ccccc21 (stereo not shown) [Example 44, 3-(1-Oxide-pyridin-3-yl)-7-(1-N,N-dimethylcarbamoylindol-3-ylcarbonyl)-1H,3H-pyrrolo[1,2-c]thiazole] | 40 nM
7 | CN(C)C(=O)Cn1cc(C(=O)c2ccn3c2CSC3c2ccc[n+]([O-])c2)c2ccc(-c3ccc(F)cc3)cc21 (stereo not shown) [Example 75, 3-(1-Oxide-pyridin-3-yl)-7-[1-(2-N,N-dimethylcarbamoylmethyl)-6-(4-fluorophenyl)indol-3-ylcarbonyl]-1H,3H-pyrrolo[1,2-c]thiazole] | 7.5 nM
8 | N#CCn1cc(C(=O)c2ccn3c2CSC3c2cccnc2)c2ccc(-c3ccc(F)cc3)cc21 (stereo not shown) [Example 94, 3-(Pyridin-3-yl)-7-[1-cyanomethyl-6-(4-fluorophenyl)indol-3-ylcarbonyl]-1H,3H-pyrrolo[1,2-c]thiazole] | 40 nM
9 | Cn1cc(C(=O)c2ccn3c2CSC3c2cccnc2)c2ccc(OCc3ccccc3)cc21 (stereo not shown) [Example 21, 3-(Pyridin-3-yl)-7-(1-methyl-6-phenylmethoxyindol-3-ylcarbonyl)-1H,3H-pyrrolo[1,2-c]thiazole] | 15 nM
10 | CN(C)C(=O)n1cc(C(=O)c2ccn3c2CSC3c2ccc[n+]([O-])c2)c2ccc(-c3ccccc3)cc21 (stereo not shown) [Example 34, 3-(1-Oxide-pyridin-3-yl)-7-(1-N,N-dimethylcarbamoyl-6-phenylindol-3-ylcarbonyl)-1H,3H-pyrrolo[1,2-c]thiazole] | 14 nM
11 | O=C(c1ccn2c1CSC2c1cccnc1)c1cn(C(=O)Oc2ccccc2)c2cc(OCc3ccccc3)ccc12 (stereo not shown) [Example 27, 3-[Pyridin-3-yl)-7-(1-carbophenoxy-6-phenylmethoxyindol-3-ylcarbonyl)-1H,3H-pyrrolo[1,2-c]thiazole] | 200 nM
12 | NC(=O)n1cc(C(=O)c2ccn3c2CSC3c2cccnc2)c2ccc(OCc3ccccc3)cc21 (stereo not shown) [Example 37, 3-(Pyridin-3-yl)-7-(1-carbamoyl-6-phenylmethoxyindol-3-ylcarbonyl)-1H,3H-pyrrolo[1,2-c]thiazole] | 10 nM
13 | O=C(c1ccn2c1CSC2c1cccnc1)c1cn(Cc2nnn[nH]2)c2cc(-c3ccc(F)cc3)ccc12 (stereo not shown) [Example 97, 3-(Pyridin-3-yl)-7-[1-(1H-tetrazol-5-ylmethyl)-6-(4-fluorophenyl)indol-3-ylcarbonyl]-1H,3H-pyrrolo[1,2-c]thiazole] | 19 nM
